Reference: patent US5468734A, “Prophylactic and remedial preparation for diseases attendant on hyperglycemia, and wholesome food” (Godo Shusei Co., Ltd., priority 1992, dated 1995)
“Also recorded” adds a separate entry of the source. Where two headings read alike, the source gives them in different places.

Tests used:
[1] = molecular target: T1, sucrase (carbohydrase derived from rabbit small intestine mucous membrane) (Oryctolagus cuniculus, UniProt P07768); experiment: Action to inhibit the hydrolytic activity of homogenate prepared from rabbit small intestine mucous membrane: sucrase inhibition; assay type: biochemical
T1 construct: suspended again in a 10 mM potassium phosphate buffer (pH: 7.0), thereby obtaining a crude enzyme suspension; from tissue; host or cells: rabbit small intestine (title: mucous membrane), homogenate, 60,000×g precipitate
Protocol: (§1) (Action to inhibit the hydrolytic activity of homogenate prepared from rabbit small intestine mucous membrane to carbohydrate)
(§2) A native kind of white rabbits (weight: 3.0-3.5 kg) were sacrificed by exsanguination to take out their small intestines.
(§3) After freezing and thawing the small intestines thus taken out, they were homogenized in a 5 mM EDTA buffer (pH: 7.0) and subjected to centrifugation for 60 minutes at 60,000×g. Precipitate thus formed was collected and suspended again in a 10 mM potassium phosphate buffer (pH: 7.0), thereby obtaining a crude enzyme suspension.
(§4) Sucrose (20 mM) and maltose (20 mM) were used as substrates.
(§5) Each reaction mixture was formulated so as to contain 350 microliters of a 100 mM maleate buffer (pH: 6.8), 100 microliters of a substrate solution, 50 microliters of the crude enzyme suspension and 50 microliters of a test solution. Substances to be tested were separately dissolved in a maleate buffer (pH: 6.8) before use.
(§6) Respective reactions were conducted for 15 minutes at 37° C.

[2] = tested on: maltase (carbohydrase derived from rabbit small intestine mucous membrane); experiment: Action to inhibit the hydrolytic activity of homogenate prepared from rabbit small intestine mucous membrane: maltase inhibition; assay type: biochemical; conditions: for Maltase inhibition rate: substrate maltose 20 mM, pH 6.8, 37° C., 15 minutes
Protocol: as §1, §2, §3, §4, §5, §6

rise in blood sugar [3] = experiment: Action to depress the rise in blood sugar after sucrose loading to mice; assay type: in vivo, ICR male mice; conditions: for Rise in blood sugar: average ± standard error
Description: (Action to depress the rise in blood sugar after carbohydrate loading)
ICR male mice (weight 30-35 g) were used in proportions of 5 mice per group.
After causing the mice to fast, sucrose or starch was orally administered in a proportion of 1 g/kg to the mice of each group, and at the same time substances to be tested were orally given to mice of their corresponding groups.
Blood was collected from the retroorbital sinus of each mouse before carbohydrate loading and upon elapsed times of 30 minutes, 60 minutes and 120 minutes after the loading to determine the concentration of glucose in the blood plasma by the glucose oxidase method.

rise in blood sugar [4] = experiment: Action to depress the rise in blood sugar after starch loading to mice; assay type: in vivo, ICR male mice; conditions: starch 1 g/kg; for Rise in blood sugar: average ± standard error
[5] = assay type: in vivo, ICR male mice
Description: (Action to depress increase in body weight of mice)
ICR male mice after the elapse of 5 weeks from their birth were used in proportions of 10 mice per group.
Mice of a control group were caused to freely ingest the same feed as those used in the run groups except that L-arabinose was not added.
The mice of each group were separately weighed after 10 days, 20 days, 30 days and 60 days from the beginning of the ingestion to determine their weight increases from the initial weights, thereby calculating an average value of the weights increased in each group. The amounts of the feeds and water ingested were also determined.

[6] = in vivo; cited from earlier work
[7] = 0.5%, 1.0%, 2.0% in feed, during the experiment

T1 sequence (P07768 1008-1827 limits assumed): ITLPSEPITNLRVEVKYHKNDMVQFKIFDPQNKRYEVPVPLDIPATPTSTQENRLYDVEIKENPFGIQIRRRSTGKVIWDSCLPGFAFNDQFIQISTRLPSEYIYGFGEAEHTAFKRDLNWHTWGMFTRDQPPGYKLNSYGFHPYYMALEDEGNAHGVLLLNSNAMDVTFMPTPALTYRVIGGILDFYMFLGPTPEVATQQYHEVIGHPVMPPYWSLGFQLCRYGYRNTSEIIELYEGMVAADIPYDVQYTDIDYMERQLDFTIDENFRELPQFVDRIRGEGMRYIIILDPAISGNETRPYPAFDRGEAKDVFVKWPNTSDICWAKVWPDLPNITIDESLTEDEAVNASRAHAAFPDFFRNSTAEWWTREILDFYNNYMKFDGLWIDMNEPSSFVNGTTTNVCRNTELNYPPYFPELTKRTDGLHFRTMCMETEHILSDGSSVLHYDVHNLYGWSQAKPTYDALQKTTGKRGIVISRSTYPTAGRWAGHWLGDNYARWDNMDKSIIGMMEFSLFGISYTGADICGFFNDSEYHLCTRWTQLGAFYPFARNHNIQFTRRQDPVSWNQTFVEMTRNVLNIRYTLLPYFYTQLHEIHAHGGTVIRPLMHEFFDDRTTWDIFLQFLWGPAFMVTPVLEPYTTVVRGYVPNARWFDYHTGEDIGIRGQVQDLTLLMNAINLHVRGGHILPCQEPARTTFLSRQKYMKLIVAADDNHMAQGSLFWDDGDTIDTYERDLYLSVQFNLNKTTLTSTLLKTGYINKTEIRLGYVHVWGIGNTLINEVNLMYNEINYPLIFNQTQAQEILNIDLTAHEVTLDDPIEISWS
T1 sequence (P07768 2-1007 partner limits assumed): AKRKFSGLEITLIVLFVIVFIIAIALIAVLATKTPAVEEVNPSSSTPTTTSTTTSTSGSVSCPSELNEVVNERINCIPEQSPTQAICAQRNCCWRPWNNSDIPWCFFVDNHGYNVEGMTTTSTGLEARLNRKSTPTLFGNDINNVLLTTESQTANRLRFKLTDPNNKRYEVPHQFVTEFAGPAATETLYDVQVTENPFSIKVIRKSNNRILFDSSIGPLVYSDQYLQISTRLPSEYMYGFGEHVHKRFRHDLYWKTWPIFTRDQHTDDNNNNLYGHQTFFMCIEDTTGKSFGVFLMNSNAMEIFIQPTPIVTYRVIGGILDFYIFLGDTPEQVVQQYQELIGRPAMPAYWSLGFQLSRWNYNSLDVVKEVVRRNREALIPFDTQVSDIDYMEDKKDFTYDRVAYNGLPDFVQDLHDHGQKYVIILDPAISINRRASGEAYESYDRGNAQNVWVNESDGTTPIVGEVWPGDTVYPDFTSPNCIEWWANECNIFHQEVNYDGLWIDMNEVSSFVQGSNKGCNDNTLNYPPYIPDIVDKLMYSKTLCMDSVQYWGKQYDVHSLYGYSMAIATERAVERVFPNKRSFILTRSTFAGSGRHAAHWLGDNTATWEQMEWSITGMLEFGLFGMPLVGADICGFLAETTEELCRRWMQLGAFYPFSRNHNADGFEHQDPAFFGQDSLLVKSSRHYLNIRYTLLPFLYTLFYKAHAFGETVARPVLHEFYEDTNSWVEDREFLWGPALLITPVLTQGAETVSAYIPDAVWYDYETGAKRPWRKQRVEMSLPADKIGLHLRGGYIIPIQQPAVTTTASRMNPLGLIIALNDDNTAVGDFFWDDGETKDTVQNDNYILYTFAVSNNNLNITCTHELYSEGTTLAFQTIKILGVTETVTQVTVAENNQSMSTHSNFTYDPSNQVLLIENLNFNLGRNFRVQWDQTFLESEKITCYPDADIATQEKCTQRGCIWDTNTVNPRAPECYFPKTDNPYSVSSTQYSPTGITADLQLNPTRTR

In the case of `O=C[C@H](O)[C@@H](O)[C@@H](O)CO` [L-Arabinose, L-arabinose], the “sucrase-inhibiting action (in words)” value [1] is reported as “strong sucrase-inhibiting action”, the inhibition at 250 µg/mL ([1]; 0.25 h, 25 mg/dl, substrate sucrose 20 mM, pH 6.8, 37° C., 15 minutes, read-out: Sucrase inhibition rate) is reported as 25.3% and the inhibition at 500 µg/mL ([1]; 0.25 h, 50 mg/dl, substrate sucrose 20 mM, pH 6.8, 37° C., 15 minutes, read-out: Sucrase inhibition rate) is reported as 37.8%. The inhibition at 1000 µg/mL ([1]; 0.25 h, 100 mg/dl, substrate sucrose 20 mM, pH 6.8, 37° C., 15 minutes, read-out: Sucrase inhibition rate) was 52%, the inhibition at 2000 µg/mL ([1]; 0.25 h, 200 mg/dl, substrate sucrose 20 mM, pH 6.8, 37° C., 15 minutes, read-out: Sucrase inhibition rate) was 66.3% and the “maltase-inhibiting action (in words)” value [2] was “strong sucrase-inhibiting action and maltase-inhibiting action”. It also gave a Maltase inhibition rate ([2]; 25 mg/dl) of 28.5%, a Maltase inhibition rate ([2]; 50 mg/dl) of 35.8% and a Maltase inhibition rate ([2]; 100 mg/dl) of 45.7%. For the same molecule, the Maltase inhibition rate ([2]; 200 mg/dl) was 47.4%, the “Rise in blood sugar” value (rise in blood sugar [3]; sucrose 1 g/kg, dose 25 mg/kg oral, after 30 min.) was 71.7 Δmg/dl and the “Rise in blood sugar” value (rise in blood sugar [3]; sucrose 1 g/kg, dose 25 mg/kg oral, after 60 min.) was 49.4 Δmg/dl. For the same molecule, the “Rise in blood sugar” value (rise in blood sugar [3]; sucrose 1 g/kg, dose 50 mg/kg oral, after 30 min.) was 62.9 Δmg/dl, the “Rise in blood sugar” value (rise in blood sugar [3]; sucrose 1 g/kg, dose 50 mg/kg oral, after 60 min.) was 37.3 Δmg/dl and the “Rise in blood sugar” value (rise in blood sugar [3]; sucrose 1 g/kg, dose 50 mg/kg oral, after 120 min.) was 21.5 Δmg/dl. For the same molecule, the “Rise in blood sugar” value (rise in blood sugar [3]; sucrose 1 g/kg, dose 100 mg/kg oral, after 30 min.) was 41.8 Δmg/dl, the “Rise in blood sugar” value (rise in blood sugar [3]; sucrose 1 g/kg, dose 100 mg/kg oral, after 60 min.) was 30.4 Δmg/dl and the “Rise in blood sugar” value (rise in blood sugar [3]; sucrose 1 g/kg, dose 100 mg/kg oral, after 120 min.) was 20.3 Δmg/dl. The “action to depress the rise in blood sugar due to sucrose loading (in words)” value (rise in blood sugar [3]; sucrose 1 g/kg, orally 25, 50 and 100 mg/kg (L-arabinose, D-xylose) or 100 mg/kg (others)) was “depressed in dependence on the dose”, the “action to depress the rise in blood sugar for sucrose or starch loading (in words)” value (rise in blood sugar [3]; sucrose or starch loading, summary statement) was “remarkably effective in depressing the rise in blood sugar after carbohydrate loading; also recorded: effective action to depress the rise in blood sugar” and the “depressing action on the rise in blood sugar due to starch loading (in words)” value (rise in blood sugar [4]) was “depressing action on the rise in blood sugar due to starch loading in dependence on the dose”. The “Rise in blood sugar” value (rise in blood sugar [4]; dose 25 mg/kg oral, after 30 min.) was 91.1 Δmg/dl, the “Rise in blood sugar” value (rise in blood sugar [4]; dose 25 mg/kg oral, after 60 min.) was 68.5 Δmg/dl and the “Rise in blood sugar” value (rise in blood sugar [4]; dose 25 mg/kg oral, after 120 min.) was 29.8 Δmg/dl. For the same molecule, the “Rise in blood sugar” value (rise in blood sugar [4]; dose 50 mg/kg oral, after 30 min.) was 71.4 Δmg/dl, the “Rise in blood sugar” value (rise in blood sugar [4]; dose 50 mg/kg oral, after 60 min.) was 54.6 Δmg/dl and the “Rise in blood sugar” value (rise in blood sugar [4]; dose 100 mg/kg oral, after 30 min.) was 59.6 Δmg/dl. The “Rise in blood sugar” value (rise in blood sugar [4]; dose 100 mg/kg oral, after 60 min.) was 48.3 Δmg/dl, the “Rise in blood sugar” value (rise in blood sugar [4]; dose 100 mg/kg oral, after 120 min.) was 24.6 Δmg/dl and the Weight increase ([5]; 0.5% in feed (Group 1 / A1), after 10 days) was 5.9 g. It also gave a Weight increase ([5]; 0.5% in feed (Group 1 / A1), after 20 days) of 9.2 g, a Weight increase ([5]; 0.5% in feed (Group 1 / A1), after 30 days) of 12.4 g and a Weight increase ([5]; 0.5% in feed (Group 1 / A1), after 60 days) of 15.0 g. The death [5, 7] was “no death at all”, the “general medical condition and behavior” value [5, 7] was “no abnormality in general medical condition and behavior” and the “weight increase compared with control group (in words)” value ([5]; 0.5%, 1.0%, 2.0% in feed, up to 60 days) was “less weight increases compared with the mice of the control group”. For the same molecule, the Weight increase ([5]; 1.0% in feed (Group 2 / A2), after 10 days) was 5.3 g, the Weight increase ([5]; 1.0% in feed (Group 2 / A2), after 20 days) was 8.0 g and the Weight increase ([5]; 1.0% in feed (Group 2 / A2), after 30 days) was 11.7 g. For the same molecule, the Weight increase ([5]; 1.0% in feed (Group 2 / A2), after 60 days) was 13.8 g, the Weight increase ([5]; 2.0% in feed (Group 3 / A3), after 10 days) was 4.7 g and the Weight increase ([5]; 2.0% in feed (Group 3 / A3), after 20 days) was 7.2 g. The Weight increase ([5]; 2.0% in feed (Group 3 / A3), after 30 days) was 10.2 g, the Weight increase ([5]; 2.0% in feed (Group 3 / A3), after 60 days) was 12.1 g and the “uptake from the digestive tract” value [6] was “hard to be taken up from the digestive tract”.
